Patent publication US7417049B2 (priority 2002, dated 2008)

Biological target: α7 nAChR Subtype (Rattus norvegicus, UniProt Q05941)
Format: binding
Details: read-out: KD of radioligand

α7 nAChR Subtype, sequence (Q05941 23-502 limits assumed): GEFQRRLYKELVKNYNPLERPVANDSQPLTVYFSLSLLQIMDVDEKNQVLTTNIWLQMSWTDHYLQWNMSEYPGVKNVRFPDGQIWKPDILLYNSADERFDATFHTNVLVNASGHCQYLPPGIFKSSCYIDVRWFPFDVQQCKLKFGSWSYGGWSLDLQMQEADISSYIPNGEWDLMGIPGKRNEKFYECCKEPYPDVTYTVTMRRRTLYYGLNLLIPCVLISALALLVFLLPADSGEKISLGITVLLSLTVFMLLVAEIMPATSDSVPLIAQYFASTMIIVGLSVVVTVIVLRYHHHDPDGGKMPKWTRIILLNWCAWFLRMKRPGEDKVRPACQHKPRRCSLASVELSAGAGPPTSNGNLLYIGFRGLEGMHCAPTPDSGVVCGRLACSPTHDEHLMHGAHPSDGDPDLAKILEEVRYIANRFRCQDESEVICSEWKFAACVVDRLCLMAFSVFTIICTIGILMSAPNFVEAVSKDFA

With [^125I]α-Bungarotoxin [[^125I]-α-BTX] as the substance, how does the Kd read?
Its Kd is 1.67 nM.
